Data set [1] concerns (H^+ -K^+) ATPase. In words: Transdermal application to backs of rats, (H+-K+) ATPase activity in fundic gastric mucosal microsomes (K+-dependent ATP-hydrolysis). The class given is in vivo, rat. How it is done: (§1) The animals were allowed to rest for varying amounts of time and then the inhibition of (H^+ -K^+) ATPase, the enzyme responsible for gastric acid secretion, was measured.
(§2) For each of the following examples the drug dilutions were prepared in DMSO to a final concentration of 150 mg/ml. The drug was made fresh prior to each application.
(§3) The inhibition of (H^+ -K^+) ATPase activity was determined as described by Im, W. B.; Blalkeman, D. P., "Inhibitiion of Gastric pH^+ -K^+) ATPase by Unsaturated Long Chain Fatty Acids" Biochem. et Biophy. […] For the rat models, fundic gastric mucosal microsomes were prepared and (H^+ -K^+) ATPase activity in the microsomes was estimated by measuring K^+ -dependent ATP-hydrolysis.
(§4) Male, Upjohn Sprague Dawley rats were anesthetized with sodium pentobarbital and their dorsal hair removed with the depilatory NAIR. Care was taken to prevent abrasions which might result from hair removal. The animals were returned to their cages and allowed to recover for twenty-four hours. The rats were then fasted overnight in metal restraining tubes without water prior to treatment. 2-(4-ethylthio-3-methylpyridin-2-yl methyl)sulfinyl-benzimidazole at 0 or 100 mg/kg was applied to the backs of the rats and spread with an Eppendorf pipette tip. The same volume of DMSO alone was applied after 2 hrs to all animals. The rats were evaluated 5 or 30 hours after the initial dose for determination of (H^+ -K^+) ATPase activity.
as §4, with “Omeprazole” for “2-(4-ethylthio-3-methylpyridin-2-yl methyl)sulfinyl-benzimidazole”
(§5) Additional volumes (100 μl) of DMSO were spread over the treatment area one time (after two hours) or four times (after one, two, three and four hours). The animals were evaluated 5 hours after the initial dose for determination of (H^+ -K^+) ATPase activity.
(§6) Additional volumes (100 μl) of DMSO were spread over the treatment area after 2, 5, and 7 hours. The animals were evaluated 24 hours after the initial dose for determination of (H^+ -K^+) ATPase activity.

The test system of data set [2] is (H^+ -K^+) ATPase. In words: Transdermal application to rabbit ears, (H+-K+) ATPase activity in fundic mucosa. The class given is in vivo. The following applies: rabbits, transdermal 100 mg/kg divided to both ears, DMSO after 1, 3, 5, 7, 24 and 25 hrs, evaluated 30 hrs after dose. As to the method: as §1, §2
The inhibition of (H^+ -K^+) ATPase activity was determined as described by Im, W. B.; Blalkeman, D. P., "Inhibitiion of Gastric pH^+ -K^+) ATPase by Unsaturated Long Chain Fatty Acids" Biochem. et Biophy. Acta 692:355-60 (1982). For the rat models, fundic gastric mucosal microsomes were prepared and (H^+ -K^+) ATPase activity in the microsomes was estimated by measuring K^+ -dependent ATP-hydrolysis.
For the rabbit models, mucosa from the fundic region was removed by blunt dissection and minced with scissors. 2.5 g of the minced tissue was placed in 25 ml of buffer containing 250 mM sucrose, 2 mM MgCl2, 1 mM EGTA, and 2 mM Hepes/Tris, pH 7.4. The tissues were then prepared as described for the rat gastric mucosa.
Male, New Zealand White rabbits were fasted overnight without water in their cages prior to treatment. The same compound as used in Example 1 was applied at 0 or 100 mg/kg in divided doses (1/2 to each ear) to naive rabbit ears. […] The rabbits were evaluated 30 hrs after the initial dose for determination of (H^+ -K^+) ATPase activity.

Data set [3] can be described thus: Transdermal application to backs of rats, (H+-K+) ATPase activity in fundic gastric mucosal microsomes (K+-dependent ATP-hydrolysis). The following applies: rat, in vivo, topical or ocular, transdermal, lowest dose 25 mg/kg, read-out: fraction of the lowest dose absorbed. The class given is in vivo, rat. As to the method: as §1, §2, §3, §4
as §4, with “Omeprazole” for “2-(4-ethylthio-3-methylpyridin-2-yl methyl)sulfinyl-benzimidazole”
as §5, §6

A short description of data set [4]: Signs of irritation after transdermal application. The class given is in vivo. As to conditions: rabbit ears, transdermal 100 mg/kg in DMSO. How it is done: Male, New Zealand White rabbits were fasted overnight without water in their cages prior to treatment. The same compound as used in Example 1 was applied at 0 or 100 mg/kg in divided doses (1/2 to each ear) to naive rabbit ears. The rabbits received an additional application of DMSO to the treatment area after 1, 3, 5, 7, 24 and 25 hrs. The rabbits were evaluated 30 hrs after the initial dose for determination of (H^+ -K^+) ATPase activity.

For the compound `COc1ccc2[nH]c([S+]([O-])Cc3ncc(C)c(OC)c3C)nc2c1` (centres unmarked) [omeprazole, reference compound], the “reduction of (H^+ -K^+) ATPase activity as compared to the control” value amounted to 35% in the data set on (H^+ -K^+) ATPase [1] (transdermal 100 mg/kg in DMSO, DMSO alone after 2 hrs, after 5 hours) and 27% in the data set with (H^+ -K^+) ATPase [1] (transdermal 100 mg/kg in DMSO, DMSO alone after 2 hrs, after 30 hours).
Regarding `CCSc1ccnc(C[S+]([O-])c2nc3ccccc3[nH]2)c1C` (centres unmarked) [2-(4-ethylthio-3-methylpyridin-2-ylmethyl)sulfinyl-benzimidazole], the “reduction of (H^+ -K^+) ATPase activity from control” value is listed as 87% with (H^+ -K^+) ATPase [2]; 60-65% in the data set on (H^+ -K^+) ATPase [1] (transdermal 100 mg/kg in DMSO, DMSO alone after 2 hrs, evaluated 5 or 30 hours after dose (activity did not change with time)); 65% in the data set on (H^+ -K^+) ATPase [1] (transdermal 100 mg/kg, one DMSO wipe after two hours, evaluated 5 hours after dose (Example 3)). Besides, the “additional reduction of (H^+ -K^+) ATPase activity by additional applications of DMSO” value in the data set with (H^+ -K^+) ATPase [1] (transdermal 100 mg/kg, four wipes of DMSO (1, 2, 3, 4 hours) versus one wipe, 5 hours) worked out at 16%. For the same compound, the “reduction of (H^+ -K^+) ATPase activity” value is 81% in the data set on (H^+ -K^+) ATPase [1] (transdermal 100 mg/kg, four wipes of DMSO (1, 2, 3, 4 hours), 5 hours) and 72% with (H^+ -K^+) ATPase [1] (transdermal 200 mg/kg, one wipe of DMSO after two hours, 5 hours). In the data set with (H^+ -K^+) ATPase [1] (transdermal 25, 50 or 100 mg/kg (maximum even at the lower dose), DMSO after 2, 5 and 7 hours, evaluated 24 hours after dose), the “reduction in (H^+ -K^+) ATPase from the control” value is approximately 50%. In data set [3], the Fa was not below 4%. Besides, in data set [4], the signs of irritation entry is “no signs of irritation were observed”.
